Consider two substances from patent publication US8096419B2, “Compound” (PCI Biotech AS, priority 2001, dated 2012).

For data set [1], the system named is V79 cells. In words: Inhibition of protein synthesis by [3H]-leucine incorporation (PCI of gelonin). The data set is classed as cell-based, Chinese hamster. As for the experimental part:
(§1) Cells of the established line V79 (ATCC CCL-93) derived from Chinese hamster lung fibroblasts were used. The cells were grown in MEM medium containing 10% foetal calf serum (FCS from Gibco, Paisley, UK), 100 U ml^−1 penicillin and 100 μg ml^−1 streptomycin (Gibco) at 37° C. in an incubator flushed with 5% CO2 in air. The cells were subcultured twice a week.
The cells were inoculated in 25 cm^2 flasks (Nunclon, Denmark) containing MEM medium with 10% FCS and left at 37° C. for 4-5 hours for proper attachment to the substratum. Subsequently, the cells were washed 3 times with medium and exposed to 1 μg/ml TPPS2a or TPCS2a in serum-containing medium for 18 hours. The cells were subsequently washed 3 times with the sensitizer-free medium and incubated for 1 hour before light exposure. The cells were then exposed to red light (Phillips TL 20 W/09) filtered through a Cinemoid 35 filter or blue light (Appl. Photophysics, Nood. 3026, London). The fluence rates reaching the cells were 1.35 mW/cm^2 and 1.5 mW/cm^2 from the red and the blue lamps respectively.
Cell survival was measured by the colony-forming test as described by Berg et al. (Photochem. Photobiol. 53: 203-210, 1991). 1500 cells were inoculated in 25 cm^2 plastic tissue-culture flasks and treated with the photosensitizer and light as described above. After photochemical treatment the V79 cells were left for 5 days at 37° C. in serum-containing culture medium to allow for formation of countable colonies. The cells were then fixed in ethanol, stained with methylene blue and the colonies counted. Inhibition of protein synthesis was assessed by [^3H]-leucine incorporation into proteins, measured at 24 hours post light exposure as described by Llorente et al. (FEBS Lett. 431: 200-204, 1998).

Data set [2] relates to V79 cells. The data set is described as follows: Cell survival by colony-forming test after photosensitizer and light. The data set is classed as cell-based, Chinese hamster. Here is the method: as §1
The cells were inoculated in 25 cm^2 flasks (Nunclon, Denmark) containing MEM medium with 10% FCS and left at 37° C. for 4-5 hours for proper attachment to the substratum. Subsequently, the cells were washed 3 times with medium and exposed to 1 μg/ml TPPS2a or TPCS2a in serum-containing medium for 18 hours. The cells were subsequently washed 3 times with the sensitizer-free medium and incubated for 1 hour before light exposure. The cells were then exposed to red light (Phillips TL 20 W/09) filtered through a Cinemoid 35 filter or blue light (Appl. Photophysics, Nood. 3026, London). […]
Cell survival was measured by the colony-forming test as described by Berg et al. (Photochem. Photobiol. 53: 203-210, 1991). […] The cells were then fixed in ethanol, stained with methylene blue and the colonies counted. Inhibition of protein synthesis was assessed by [^3H]-leucine incorporation into proteins, measured at 24 hours post light exposure as described by Llorente et al. (FEBS Lett. 431: 200-204, 1998).

Data set [3] is described as follows: Absorption spectra on photochemical reduction of TPPS2a. The data set is classed as physicochemical. Particulars: benzene/TEA, peak shifted from 646 nm to 655 nm. As for the experimental part:
A mixture of 950 μl benzene/triethylamine (TEA) (18:7), 32 μl dimethyl sulfoxide (DMSO) and 18 μl TPPS2a (from a solution of 1 mg/ml in DMSO) was prepared and saturated with nitrogen for 5 min in a 1 ml cuvette. The mixture was then exposed to light from a 500 W high pressure Xenon lamp fitted to a Bausch and Lomb grating monochromator. The cuvette was exposed to 545±15 nm light at 15 W/m^2. The fluence rate was monitored by means of a UDT 11 A photodetector with a 223 radiometric filter. The absorption spectra was measured regularly by a Perkin-Elmer Lambda 15 UV/VIS spectrophotometer. The light pass was 1 cm.
In accordance with the method described by Harel et al. (Photochem. Photobiol. 23: 337-341, 1976), TPPS2a was exposed to light in a solution of triethylamine (TEA) in benzene saturated with nitrogen. The solution was exposed to light of 545 nm in a cuvette as described above in “Materials and Methods”.

The subject of data set [4] is V79 cells. Particulars: Berg et al. Cancer Res. 59: 1180-1183, 1999; cited from earlier work.

Entries after “also recorded” stand apart in the source; their conditions may differ.

For “Tetraphenyl chlorin disulfonate [TPCS2a]”, in the data set with V79 cells [1] (1 μg/ml TPCS2a plus 1 μg/ml gelonin, red light, protein synthesis 24 hours after exposure to light), the “potentiation of the cytotoxicity of gelonin by TPCS2a and light” value was “strongly potentiate”. Also, the “reduction in protein synthesis induced by TPCS2a alone” value in the data set with V79 cells [1] (1 μg/ml TPCS2a, without gelonin) was found to be 20%. The “sensitivity of treated cells to photoinactivation with blue light relative to TPPS2a” value in the data set on V79 cells [2] (18 hours incubation with sensitizer, 1 hour sensitizer-free medium, blue light, versus TPPS2a) was “equally sensitive; also recorded: equally efficient”. In the data set with V79 cells [2] (TPCS2a alone), the “reduction induced by TPCS2a alone in the clonogenicity assay” value is reported as “not observed”. For the same substance, in data set [3], the “increase in the extinction coefficient of band I of the Q-bands versus TPPS2a” value is given as 5.8 fold.

Regarding “gelonin: type I ribosome-inactivating protein toxin, transfer molecule for PCI”, in the data set on V79 cells [4], the “toxicity of gelonin alone or in combination with light (literature)” value is reported as “low toxicity”. Also, in the data set on V79 cells [1] (1 μg/ml gelonin for 18 hours), the “reduction of protein synthesis by gelonin alone” value is “about 10%”.
